From US10280159B2 (AbbVie Deutschland GmbH & Co. KG, priority 2015, dated 2019)

Assays:
Format in all cases: cell-based
[1] = molecular target: T1, human S1PR5 (Homo sapiens, UniProt Q9H228); assay: Intracellular Ca2+ release (FLIPR) agonist potency, S1P5; settings: recombinant CHO-K1 cells expressing human S1PR5, aequorin, Gq/i5; Calcium 5 FLIPR; read-out: S1P5 EC50 range
T1 construct: host or cells: CHO-K1
In short: (§1)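 CHO-K1/receptor/aequorin/Gq/i5 cells, F-12 Ham + 10% FBS. Ca2+ release read on FLIPR Tetra. EC50 by nonlinear fit after normalizing to phospho-fingolimod reference curve.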

[2] = molecular target: T2, human S1PR1 (Homo sapiens, UniProt P21453); assay: Intracellular Ca2+ release (FLIPR) agonist potency, S1P1; settings: recombinant CHO-K1 cells expressing human S1PR1, aequorin, Gq/i5; Calcium 5 FLIPR; read-out: S1P1 EC50
T2 construct: host or cells: CHO-K1
T2 sequence (P21453 whole entry): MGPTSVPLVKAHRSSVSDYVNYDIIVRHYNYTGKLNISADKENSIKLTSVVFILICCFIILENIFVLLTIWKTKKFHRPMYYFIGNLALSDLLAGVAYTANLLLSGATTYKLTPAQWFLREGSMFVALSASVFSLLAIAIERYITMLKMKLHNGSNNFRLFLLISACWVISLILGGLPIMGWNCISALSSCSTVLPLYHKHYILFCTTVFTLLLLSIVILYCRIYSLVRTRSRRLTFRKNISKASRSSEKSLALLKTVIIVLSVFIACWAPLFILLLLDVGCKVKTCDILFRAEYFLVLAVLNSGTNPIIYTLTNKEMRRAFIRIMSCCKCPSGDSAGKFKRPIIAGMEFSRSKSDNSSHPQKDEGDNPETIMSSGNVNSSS
In short: as §1

[3] = molecular target: T3, human S1PR3 (Homo sapiens, UniProt Q99500); assay: Intracellular Ca2+ release (FLIPR) agonist potency, S1P3; settings: recombinant CHO-K1 cells expressing human S1PR3, aequorin, Gq/i5; Calcium 5 FLIPR; read-out: S1P3 EC50
T3 construct: host or cells: CHO-K1
T3 sequence (Q99500 whole entry): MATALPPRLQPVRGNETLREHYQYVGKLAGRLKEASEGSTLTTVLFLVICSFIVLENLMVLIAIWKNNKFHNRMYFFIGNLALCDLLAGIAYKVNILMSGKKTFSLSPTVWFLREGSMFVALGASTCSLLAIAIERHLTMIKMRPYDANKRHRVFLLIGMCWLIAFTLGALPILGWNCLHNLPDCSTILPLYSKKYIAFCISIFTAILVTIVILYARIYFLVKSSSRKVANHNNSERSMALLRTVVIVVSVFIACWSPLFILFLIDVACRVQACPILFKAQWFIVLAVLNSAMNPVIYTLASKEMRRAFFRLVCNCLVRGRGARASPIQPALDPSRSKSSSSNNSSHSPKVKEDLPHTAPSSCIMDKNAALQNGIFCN
Procedure: Agonistic activity was measured using the method described below.
Intracellular Ca^2+ Release
Agonist potency and intrinsic activity was assessed by measurement of intracellular Ca^2+ release. Recombinant CHO-K1 cells (Euroscreen, Brussels, Belgium) expressing human S1PR5, S1PR1, S1PR3 or S1PR4 receptors, aequorin, and GTP binding protein Gq/i5 were cultured using a medium containing nutrient mixture F-12 Ham (Sigma-Aldrich) with 10% FBS, and 100 μg/mL gentamicin and equilibrated at 5% CO2.
Phospho-fingolimod was used as positive control. Antagonists were pre-incubated for 10 min with cells before addition of the agonist (phospho-fingolimod at EC80). Measurements were performed using a fluorometric imaging plate reader FLIPR®tetra (Molecular Devices). Agonist at the human S1P receptors were characterized by deducing EC50 (potency) values from a nonlinear fit to the measured fluorescence raw data after normalization to the reference agonist (phospho-fingolimod) curve.

[4] = molecular target: T4, human S1PR4 (Homo sapiens, UniProt O95977); assay: Intracellular Ca2+ release (FLIPR) agonist potency, S1P4; settings: recombinant CHO-K1 cells expressing human S1PR4, aequorin, Gq/i5; Calcium 5 FLIPR; read-out: S1P4 EC50
T4 construct: host or cells: CHO-K1
T4 sequence (O95977 1-384): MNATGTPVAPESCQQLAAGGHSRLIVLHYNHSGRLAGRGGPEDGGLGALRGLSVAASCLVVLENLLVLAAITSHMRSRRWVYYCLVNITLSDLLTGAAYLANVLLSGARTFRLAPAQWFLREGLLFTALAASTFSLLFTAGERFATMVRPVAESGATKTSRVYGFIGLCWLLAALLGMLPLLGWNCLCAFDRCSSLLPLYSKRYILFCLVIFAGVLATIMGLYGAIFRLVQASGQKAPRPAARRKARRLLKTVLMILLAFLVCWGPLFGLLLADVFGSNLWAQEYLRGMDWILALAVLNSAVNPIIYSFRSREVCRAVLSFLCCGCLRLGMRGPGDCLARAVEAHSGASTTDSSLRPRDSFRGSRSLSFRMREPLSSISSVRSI
In short: as §1

T1 sequence (Q9H228 whole entry): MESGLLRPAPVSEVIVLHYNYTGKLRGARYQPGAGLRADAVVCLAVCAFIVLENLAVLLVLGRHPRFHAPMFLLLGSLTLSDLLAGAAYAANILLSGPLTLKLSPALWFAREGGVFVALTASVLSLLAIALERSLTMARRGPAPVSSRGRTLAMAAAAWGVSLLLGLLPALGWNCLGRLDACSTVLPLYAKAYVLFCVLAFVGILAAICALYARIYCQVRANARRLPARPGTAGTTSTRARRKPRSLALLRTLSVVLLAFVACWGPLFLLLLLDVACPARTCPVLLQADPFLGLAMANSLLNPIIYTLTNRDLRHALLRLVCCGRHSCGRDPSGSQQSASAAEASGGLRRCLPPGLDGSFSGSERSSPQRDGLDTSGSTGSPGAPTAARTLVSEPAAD

EC50 [1]	EC50 [2]	EC50 [3]	EC50 [4]	Compound
< 10 nM	> 1000 nM	> 1000 nM	> 1000 nM	O=C(O)C1CCN(C2COc3cc(OCc4c(Cl)cccc4Cl)ccc3C2)C1 (single isomer, unassigned) [Compound 50, 1-(7-((2,6-dichlorobenzyl)oxy)chroman-3-yl)pyrrolidine-3-carboxylic acid]
10 to 100 nM	> 1000 nM	> 1000 nM	< 1000 nM	O=C(O)C1CN(C2COc3cc(OCc4c(F)cccc4C(F)(F)F)ccc3C2)C1 (centres unmarked) [Compound 66, 1-(7-((2-fluoro-6-(trifluoromethyl)benzyl)oxy)chroman-3-yl)azetidine-3-carboxylic acid]
< 10 nM	> 1000 nM	> 1000 nM	< 1000 nM	CCc1cccc(Cl)c1COc1ccc2c(c1)OCC(N1CC(C(=O)O)C1)C2 (centres unmarked) [Compound 23, 1-(7-((2-chloro-6-ethylbenzyl)oxy)chroman-3-yl)azetidine-3-carboxylic acid]
< 10 nM	> 1000 nM	> 1000 nM	< 1000 nM	CN(CCC(=O)O)C1CCc2cc(C#Cc3c(Cl)cccc3Cl)ccc2C1 (centres unmarked) [Compound 13, 3-((6-((2,6-dichlorophenyl)ethynyl)-1,2,3,4-tetrahydronaphthalen-2-yl)(methyl)amino)propanoic acid]
< 10 nM	> 1000 nM	> 1000 nM	> 1000 nM	O=C(O)COC1CCc2cc(OCc3c(F)ccc(Cl)c3F)ccc2C1 (centres unmarked) [Compound 152, 2-[6-[(3-chloro-2,6-difluoro-phenyl)methoxy]tetralin-2-yl]oxyacetic acid]
< 10 nM	> 1000 nM	> 1000 nM	< 1000 nM	CCc1cccc(F)c1COc1ccc2c(c1)OCC(N1CC(C(=O)O)C1)C2 (centres unmarked) [Compound 65, 1-(7-((2-ethyl-6-fluorobenzyl)oxy)chroman-3-yl)azetidine-3-carboxylic acid]
< 10 nM	> 1000 nM	> 1000 nM	> 1000 nM	CCc1cccc(Cl)c1COc1ccc2c(c1)CCC(NCC(=O)N(C)OC)C2 (centres unmarked) [Compound 216, 2-[[6-[(2-chloro-6-ethyl-phenyl)methoxy]tetralin-2-yl]amino]-N-methoxy-N-methyl-acetamide]
10 to 100 nM	> 1000 nM	> 1000 nM	< 1000 nM	O=C(O)C1CCN(CC2OCCc3cc(OCc4c(Cl)cccc4Cl)ccc32)CC1 (centres unmarked) [Compound 70, 1-((6-((2,6-dichlorobenzyl)oxy)isochroman-1-yl)methyl)piperidine-4-carboxylic acid]
< 10 nM	> 1000 nM	> 1000 nM	< 1000 nM	O=C(O)C12CC(NC3CCc4cc(OCc5c(Cl)cccc5Cl)ccc4C3)(C1)C2 (centres unmarked) [Compound 32, 3-((6-((2,6-dichlorobenzyl)oxy)-1,2,3,4-tetrahydronaphthalen-2-yl)amino)bicyclo[1.1.1]pentane-1-carboxylic acid]
10 to 100 nM	> 1000 nM	> 1000 nM	> 1000 nM	O=C(O)COC1CCc2cc(OCc3cc(OC(F)(F)F)ccc3F)ccc2C1 (centres unmarked) [Compound 161, 2-[6-[[2-fluoro-5-(trifluoromethoxy)phenyl]methoxy]tetralin-2-yl]oxyacetic acid]
< 10 nM	> 1000 nM	> 1000 nM	< 1000 nM	O=C(O)C1CN(C2COc3cc(OCc4c(F)cccc4C4CC4)ccc3C2)C1 (centres unmarked) [Compound 67, 1-(7-((2-cyclopropyl-6-fluorobenzyl)oxy)chroman-3-yl)azetidine-3-carboxylic acid]
< 10 nM	> 1000 nM	> 1000 nM	> 1000 nM	O=C(O)C1CN(C2COc3cc(OCc4c(Cl)cccc4Cl)ccc3C2)C1 (centres unmarked) [Compound 1, 1-(7-((2,6-dichlorobenzyl)oxy)chroman-3-yl)azetidine-3-carboxylic acid]
< 10 nM	< 1000 nM	> 1000 nM	> 1000 nM	O=C(O)C1CN(C2COc3cc(-c4ccc(OCC5CCCCC5)cc4)ccc3C2)C1 (centres unmarked) [Compound 55, 1-(7-(4-(cyclohexylmethoxy)phenyl)chroman-3-yl)azetidine-3-carboxylic acid]
10 to 100 nM	> 1000 nM	> 1000 nM	< 1000 nM	O=C(O)CCNC1CCc2cc(/C=C/c3ccccc3)ccc2C1 (centres unmarked) [Compound 19, (E)-3-((6-styryl-1,2,3,4-tetrahydronaphthalen-2-yl)amino)propanoic acid]
< 10 nM	> 1000 nM	> 1000 nM	< 1000 nM	O=C(O)CCNC1CCc2cc(OCc3ccccc3Cl)ccc2C1 (centres unmarked) [Compound 8, 3-((6-((2-chlorobenzyl)oxy)-1,2,3,4-tetrahydronaphthalen-2-yl)amino)propanoic acid]
1000 to 10000 nM	> 1000 nM	> 1000 nM	> 1000 nM	O=C(O)C1CN(C2COc3cc(OCc4cccc(Cl)c4)ccc3C2)C1 (centres unmarked) [Compound 24, 1-(7-((3-chlorobenzyl)oxy)chroman-3-yl)azetidine-3-carboxylic acid]
< 10 nM	< 1000 nM	> 1000 nM	< 1000 nM	CCc1cccc(Cl)c1COc1ccc2c(c1)CCC(N(C)CCC(=O)O)C2 (centres unmarked) [Compound 17, 3-((6-((2-chloro-6-ethylbenzyl)oxy)-1,2,3,4-tetrahydronaphthalen-2-yl)(methyl)amino)propanoic acid]
10 to 100 nM	> 1000 nM	> 1000 nM	> 1000 nM	Cc1cccc(C)c1COc1ccc2c(c1)CCC(OCC(=O)O)C2 (centres unmarked) [Compound 175, 2-[6-[(2,6-dimethylphenyl)methoxy]tetralin-2-yl]oxyacetic acid]
< 10 nM	> 1000 nM	> 1000 nM	< 1000 nM	O=C(O)C1CN(C2COc3cc(C#Cc4cc(F)cc(F)c4)ccc3C2)C1 (centres unmarked) [Compound 27, 1-(7-((3,5-difluorophenyl)ethynyl)chroman-3-yl)azetidine-3-carboxylic acid]
< 10 nM	> 1000 nM	> 1000 nM	> 1000 nM	O=C(O)COC1CCc2cc(OCc3c(Cl)cccc3C(F)(F)F)ccc2C1 (centres unmarked) [Compound 167, 2-[6-[[2-chloro-6-(trifluoromethyl)phenyl]methoxy]tetralin-2-yl]oxyacetic acid]
< 10 nM	> 1000 nM	> 1000 nM	< 1000 nM	O=C(O)C1CN(C2COc3cc(OCc4c(Cl)cccc4C4CC4)ccc3C2)C1 (centres unmarked) [Compound 25, 1-(7-((2-chloro-6-cyclopropylbenzyl)oxy)chroman-3-yl)azetidine-3-carboxylic acid]
1000 to 10000 nM	> 1000 nM	> 1000 nM	> 1000 nM	O=C(O)CCNC1CCc2cc(OCc3c(Cl)cccc3C3CC3)ccc2C1 (centres unmarked) [Compound 21, 3-((6-((2-chloro-6-cyclopropylbenzyl)oxy)-1,2,3,4-tetrahydronaphthalen-2-yl)amino)propanoic acid]
< 10 nM	> 1000 nM	> 1000 nM	< 1000 nM	O=C(O)C1CN(C2COc3cc(C#Cc4cc(F)ccc4F)ccc3C2)C1 (centres unmarked) [Compound 38, 1-(7-((2,5-difluorophenyl)ethynyl)chroman-3-yl)azetidine-3-carboxylic acid]
1000 to 10000 nM	> 1000 nM	> 1000 nM	> 1000 nM	C=C(CN(Cc1c(Cl)cccc1CC)C1CCc2cc(OCc3c(Cl)cccc3CC)ccc2C1)C(=O)OC (centres unmarked) [Compound 22, Methyl 2-(((2-chloro-6-ethylbenzyl)(6-((2-chloro-6-ethylbenzyl)oxy)-1,2,3,4-tetrahydronaphthalen-2-yl)amino)methyl)acrylate]
< 10 nM	> 1000 nM	> 1000 nM	> 1000 nM	O=C(O)C1CN(C2COc3cc(-c4ccc(OCc5ccc(Cl)cc5)cc4)ccc3C2)C1 (centres unmarked) [Compound 54, 1-(7-(4-((4-chlorobenzyl)oxy)phenyl)chroman-3-yl)azetidine-3-carboxylic acid]
100 to 1000 nM	> 1000 nM	> 1000 nM	< 1000 nM	O=C(O)CNC1COc2cc(OCc3c(Cl)cccc3Cl)ccc2C1 (centres unmarked) [Compound 35, 2-((7-((2,6-dichlorobenzyl)oxy)chroman-3-yl)amino)acetic acid]
